In US10500142B2, “Oral care compositions” (COLGATE-PALMOLIVE COMPANY, priority 2015, dated 2019):

Key:
[1] = Solution preparation: clarity / dissolution of SnF2 with TSPP or TKPP in water; format: physicochemical; conditions: 2% SnF2 in water with TSPP or TKPP; as prepared
Protocol: The solutions are prepared by first dissolving TSPP or TKPP in water (mixing under high heat if necessary) and then adding a 20% stannous fluoride solution to the clear solution with an automatic pipet. […] All of the solutions contain 2% SnF2.

[2] = SnCl2.2H2O/pyrophosphate solutions: appearance on preparation and aging at room temperature; format: physicochemical; conditions: 3% SnCl2.2H2O; aged overnight at room temperature
Protocol: Solutions are prepared by dissolving TSPP in deionized water (mixing under heat if necessary) and then adding 0.6 g of SnCl2.2H2O to make 20-gram solutions.
The solutions with a P/Sn molar ratio spanning from 0.5 to 5 containing 3% SnCl2.2H2O are aged overnight at room temperature. A 3% SnCl2.2H2O solution is used as a control.
Solutions are prepared by dissolving TKPP in deionized water (mixing under heat if necessary) and then adding 0.6 g SnCl2.2H2O to make 20-g solutions.

[F][Sn][F] [2% stannous fluoride solution, stannous fluoride]
appearance / dissolution of the solution on preparation [1]: precipitate almost immediately after dissolution

O.O.[Cl][Sn][Cl] [3% SnCl2.2H2O solution, SnCl2.2H2O]
appearance after aging overnight [2]: cloudy precipitate that settles
